Drawing on patent US5945421A, “Dopamine D4 receptor antagonists” (Warner-Lambert Company, priority 1997, dated 1999), this text covers Ki for 26 compounds.

Assay [1] addresses T1, human recombinant dopamine D4.2 receptor (Homo sapiens, UniProt P21917, DEL265-296).
T1 construct: expressed in transfected cells; host or cells: CHO K1
T1 sequence (P21917 with tags, fused parts or gaps DEL265-296): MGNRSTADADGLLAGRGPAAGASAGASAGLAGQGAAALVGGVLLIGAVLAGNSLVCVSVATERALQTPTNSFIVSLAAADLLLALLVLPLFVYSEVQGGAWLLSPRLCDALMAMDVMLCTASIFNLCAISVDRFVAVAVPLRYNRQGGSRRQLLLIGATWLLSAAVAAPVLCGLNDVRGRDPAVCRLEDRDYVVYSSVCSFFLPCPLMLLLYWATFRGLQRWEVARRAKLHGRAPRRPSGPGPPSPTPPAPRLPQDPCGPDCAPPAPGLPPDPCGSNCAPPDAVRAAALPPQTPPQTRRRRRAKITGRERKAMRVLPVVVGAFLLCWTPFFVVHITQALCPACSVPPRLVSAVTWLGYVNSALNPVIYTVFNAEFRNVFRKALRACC
Description: Receptor binding assay, D4.2 dopamine receptor ([3H]spiperone competition, CHO K1 cell membranes). An excerpt: (§1) A cell line expressing human dopamine D2 (Long form) receptors was purchased from Oregon Health Sciences University, Portland, Oreg. The D2 receptor cDNA was subcloned into an expression vector, pRc/CMV. The plasmids were transfected by electroporation into CHO K1 cells. A single stable transfectant, resistant to the antibiotic G418, was isolated and selected for use in the binding studies. For D4 binding, CHO K1 cells stably transfected to express the human recombinant dopamine D4.2 receptor subtype, as described by Shih, et al., "The expression and functional characterization of human dopamine D4.2 receptor in CHO K1 cells," Soc. Neurosci., 21(Part 1):621 (1995).
(§2) CHO K1 cells expressing either human D2 and D4.2 receptors were grown in 162 cm^2 culture flasks in F12 medium (Gibco Laboratories, Grand Island, N.Y.) supplemented with 10% fetal bovine serum (FBS, Hyclone, Logan, Utah) in an atmosphere of 5% CO2 /95% air at 37° C. Cells were grown until confluent, after which growth medium was removed and replaced with 0.02% ethylene diamine tetracetate (EDTA) in a phosphate-buffered saline solution (Sigma Chemical Co., St. Louis, Mo.) and scraped from the flasks. The cells were centrifuged at about 1000×g for 10 minutes at 40° C. and then resuspended in TEM buffer (25 mM Tris-HCL, pH 7.4, 5 mM EDTA, and 6 mM MgCl2) for D2 or the D4.2 buffer (50 mM Tris-HCl, pH 7.4, 5 mM EDTA, 1.5 mM CaCl2, 5 mM KCl, and 120 mM NaCl) and homogenized. The membranes were pelleted by centrifugation at 20,000×g at 40° C. for 20 minutes. Then the pellets were resuspended in appropriate buffer at 1 mL/flask and stored at -70° C. until used in the receptor binding assay.
(§3) After 60 minutes incubation at 25° C., the incubations were terminated by rapid filtration through Whatmann GF/B glass fibre filters (soaked for 1 hour in 0.5% polyethylenimine) on a -cell harvester, with three washes of 1 mL ice-cold buffer. Individual filter disks containing the bound ligand were placed in counting vials with 4 mL of scintillation fluid (Ready Gel, Beckman Instrument Inc., Fullerton, Calif.) and then counted in a Beckman LS-6800 liquid scintillation counter at an efficiency of 45%. Nonspecific binding was defined in presence of 1 mM of haloperidol.
(§4) Saturation and competition binding data were analyzed using an iterative nonlinear least-square curve-fitting Ligand program. In competition experiments, apparent Ki values were calculated from IC50 values by method of Cheng and Prusoff, "Relationship between the inhibition constant (Ki) and the concentration of inhibitor which causes 50% inhibition (IC50) of an enzymatic reaction," Biochem. Pharmacol., 22:3099-3108 (1973). Experimental compounds were made up as stock solutions in dimethyl sulfoxide (DMSO). […] Each observation was carried out in triplicate. To allow these calculations, Kd values were measured for the interaction of various ligands with the receptor. […]

For assay [2], the target named is human dopamine D2 (Long form) receptors (Homo sapiens, UniProt P14416). The experiment in a line: biochemical. The conditions noted are these: 0.2 nM [3H]spiperone, CHO K1 membranes, 60 min, 25° C.; apparent Ki from IC50 (Cheng-Prusoff). It counts as binding.
Sequence of human dopamine D2 (Long form) receptors (P14416 whole entry): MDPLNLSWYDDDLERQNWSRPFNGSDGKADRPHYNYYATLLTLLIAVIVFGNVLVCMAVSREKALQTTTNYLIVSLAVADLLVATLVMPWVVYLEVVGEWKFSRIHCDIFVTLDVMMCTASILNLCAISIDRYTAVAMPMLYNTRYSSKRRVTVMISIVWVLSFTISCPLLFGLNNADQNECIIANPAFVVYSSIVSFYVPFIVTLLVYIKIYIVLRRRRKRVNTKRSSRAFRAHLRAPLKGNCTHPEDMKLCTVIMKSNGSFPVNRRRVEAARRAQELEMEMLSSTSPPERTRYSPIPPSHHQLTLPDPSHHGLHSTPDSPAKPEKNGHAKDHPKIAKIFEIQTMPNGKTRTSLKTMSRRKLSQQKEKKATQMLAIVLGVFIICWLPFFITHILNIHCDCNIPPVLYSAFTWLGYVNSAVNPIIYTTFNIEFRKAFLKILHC
From the text: as §1, §2, §3, §4

The mark [3] stands for this setting: 0.2 nM [3H]spiperone, CHO K1 membranes, 60 min, 25° C., apparent Ki from IC50 (Cheng-Prusoff), read-out: D4 Ki.

Where two headings read alike, the source gives them in different places.

`Cc1cccc(N2CCN(Cc3ccc4ccccc4n3)CC2)c1` [2-(4-m-Tolyl-piperazin-1-ylmethyl)-quinoline]: the Ki in assay [1] (setting [3]) was 127 nM.
For `Cc1ccc(N2CCN(Cc3ccc4ccccc4n3)CC2)cc1` [2-(4-p-Tolyl-piperazin-1-ylmethyl)-quinoline], the Ki in assay [2] was 2850 nM; in assay [1] (setting [3]), 1.55 nM.
For the compound `O=Cc1ccc(N2CCN(Cc3ccc4ccccc4n3)CC2)cc1Cl` [2-Chloro-4-(4-quinolin-2-ylmethyl-piperazin-1-yl)-benzaldehyde], the Ki in assay [1] (setting [3]) worked out at 87 nM.
Consider `Clc1cccc(N2CCN(Cc3ccc4ccccc4n3)CC2)c1Cl` [2-[4-(2,3-Dichloro-phenyl)-piperazin-1-ylmethyl]-quinoline], for which the Ki in assay [1] (setting [3]) came to 59.5 nM.
As for `Clc1ccc(N2CCN(Cc3ccc4ccccc4n3)CC2)cc1Cl` [2-[4-(3,4-Dichloro-phenyl)-piperazin-1-ylmethyl]-quinoline], the figures for the Ki in assay [2] and in assay [1] (setting [3]) were greater than 5880 nM and 61 nM, respectively.
Consider `Cc1ccc(N2CCN(Cc3ccc4ccccc4n3)CC2)cc1C` [2-[4-(3,4-Dimethyl-phenyl)-piperazin-1-ylmethyl]-quinoline], for which the figures for the Ki in assay [2] and in assay [1] (setting [3]) were greater than 5880 nM and 13 nM, respectively.
Consider `Clc1cc(Cl)cc(N2CCN(Cc3ccc4ccccc4n3)CC2)c1` [2-[4-(3,5-Dichloro-phenyl)-piperazin-1-ylmethyl]-quinoline], for which, in assay [1] (setting [3]), the Ki came out at 121 nM.
For `Brc1cccc(N2CCN(Cc3ccc4ccccc4n3)CC2)c1` [2-[4-(3-Bromo-phenyl)-piperazin-1-ylmethyl]-quinoline], in assay [1] (setting [3]), the Ki is 46 nM.
Take `COCc1ccc(N2CCN(Cc3ccc4ccccc4n3)CC2)cc1Cl` [2-[4-(3-Chloro-4-methoxymethyl-phenyl)-piperazin-1-ylmethyl]-quinoline]: the Ki was greater than 5880 nM in assay [2] and 31.5 nM in assay [1] (setting [3]).
For the compound `Cc1ccc(N2CCN(Cc3ccc4ccccc4n3)CC2)cc1Cl` [2-[4-(3-Chloro-4-methyl-phenyl)-piperazin-1-ylmethyl]-quinoline], the values for the Ki in assay [2] and in assay [1] (setting [3]) were greater than 5880 nM and 36 nM, respectively.
Consider `Clc1cccc(N2CCN(Cc3ccc4ccccc4n3)CC2)c1` [2-[4-(3-Chloro-phenyl)-piperazin-1-ylmethyl]-quinoline], for which the Ki is greater than 5880 nM in assay [2] and 2.72 nM in assay [1] (setting [3]).
For the compound `CCCc1cccc(N2CCN(Cc3ccc4ccccc4n3)CC2)c1` [2-[4-(3-Propyl-phenyl)-piperazin-1-ylmethyl]-quinoline], the Ki was 5810 nM in assay [2] and 57 nM in assay [1] (setting [3]).
With `FC(F)(F)c1cc(N2CCN(Cc3ccc4ccccc4n3)CC2)ccc1Cl` [2-[4-(4-Chloro-3-trifluoromethyl-phenyl)-piperazin-1-ylmethyl]-quinoline], the Ki in assay [1] (setting [3]) was found to be 122 nM.
Take `Fc1ccc(C2=CCN(Cc3ccc4ccccc4n3)CC2)cc1` [2-[4-(4-Fluoro-phenyl)-3,6-dihydro-2H-pyridin-1-ylmethyl]-quinoline]: the Ki turned out to be 254 nM in assay [2] and 14.4 nM in assay [1].
Consider `COc1ccc(N2CCN(Cc3ccc4ccccc4n3)CC2)cc1` [2-[4-(4-Methoxy-phenyl)-piperazin-1-ylmethyl]-quinoline], for which the Ki in assay [1] (setting [3]) amounted to 101 nM.
`N#Cc1ccc(N2CCN(Cc3ccc4ccccc4n3)CC2)cc1Cl` [2-chloro-4-(4-quinolin-2-ylmethyl-piperazin-1-yl)-benzonitrile]: in assay [1], the Ki came out at 101 nM.
For `c1ccc(N2CCN(Cc3cnc4ccccc4c3)CC2)cc1` [3-(4-Phenyl-piperazin-1-ylmethyl)-quinoline], the Ki in assay [2] was found to be 1790 nM; in assay [1] (setting [3]), 16 nM.
With `Cc1ccc(N2CCN(Cc3cnc4ccccc4c3)CC2)cc1` [3-(4-p-Tolyl-piperazin-1-ylmethyl)-quinoline], the Ki in assay [2] was determined as 2160 nM; in assay [1] (setting [3]), 21 nM.
Turning to `Fc1ccccc1N1CCN(Cc2cnc3ccccc3c2)CC1` [3-[4-(2-Fluoro-phenyl)-piperazin-1-ylmethyl]-quinoline], the Ki stood at 512 nM in assay [2] and 29 nM in assay [1] (setting [3]).
On the same counts, the results for `c1ccc(N2CCN(Cc3ccc4ncccc4c3)CC2)cc1` [6-(4-Phenyl-piperazin-1-ylmethyl)-quinoline] are 1380 nM and 26 nM.
On to `OCc1ccc(N2CCN(Cc3ccc4ccccc4n3)CC2)cc1Br` [[2-Bromo-4-(4-quinolin-2-ylmethyl-piperazin-1-yl)-phenyl]-methanol], for which the Ki was greater than 5880 nM in assay [2] and 36 nM in assay [1] (setting [3]).
`OCc1ccc(N2CCN(Cc3cnc4ccccc4c3)CC2)cc1Br` [[2-Bromo-4-(4-quinolin-3-ylmethyl-piperazin-1-yl)-phenyl]-methanol]: the Ki was greater than 5880 nM in assay [2] and 13.5 nM in assay [1] (setting [3]).
For the compound `OCc1ccc(N2CCN(Cc3ccc4ccccc4n3)CC2)cc1Cl` [[2-Chloro-4-(4-quinolin-2-ylmethyl-piperazin-1-yl)-phenyl]-methanol], the Ki was greater than 10000 nM in assay [2] and 8.27 nM in assay [1] (setting [3]).
For the compound `OCc1ccc(N2CCN(Cc3ccc4ccccc4n3)CC2)cc1F` [[2-Fluoro-4-(4-quinolin-2-ylmethyl-piperazin-1-yl)-phenyl]-methanol], in assay [1] (setting [3]), the Ki turned out to be 87 nM.
With `OCc1ccc(N2CCN(Cc3cnc4ccccc4c3)CC2)cc1F` [[2-Fluoro-4-(4-quinolin-3-ylmethyl-piperazin-1-yl)-phenyl]-methanol], the Ki was greater than 5880 nM in assay [2] and 8.8 nM in assay [1] (setting [3]).
Turning to `OCc1ccc(N2CCN(Cc3ccc4ccccc4n3)CC2)cc1` [[4-(4-Quinolin-2-ylmethyl-piperazin-1-yl)-phenyl]-methanol], the Ki in assay [2] is greater than 5880 nM; in assay [1] (setting [3]) it was 139 nM.
